Tests used:
[1] = human, in vivo
Procedure: A total of 90 patients were studied. All were treated for advanced colorectal cancer following treatment including irinotecan, fluorouracil and leucovorin (FOLFIRI Regimen)
After 200 mg/m^2 of intravenous leucovorin bolus and 400 mg/m^2 of intravenous push of 5-FU for 10 minutes, 5-FU was administered with an initial dose of 2,500 mg/m^2 every two weeks for 46-hours through a battery-operated pump, except in case of DPD significant mutation, in which case the initial dose of 5-FU in 46 hours continuous infusion was decreased by 50%.
Irinotecan was administered before 5-FU for 2 hours and the initial dose was 180 mg/m^2 without reduction for UGT 1A1 7/7 genotype group.
Treatment was continued until documented progression.
Statistical analysis used the chi2 test, linear regression analysis and the Kaplan-Meier method.

[2] = patients treated by 5-FU; cited from earlier work
[3] = cited from earlier work
[4] = subject with normal DPD enzymatic activity

For `O=c1[nH]cc(F)c(=O)[nH]1` [5-FU, 5-fluorouracile], the “neutropenia grade 4, number observed” value [1] is listed as 1, the “death due to polyvisceral toxicity” value [2] is listed as 0.8 % of treated patients and the “severe grade 3-4 toxicity” value [2] is listed as 20-25%. The “very early polyvisceral toxicity” value [2] was 5-8 % of patients, the “time to plateau of plasmatic levels after beginning of continuous infusion” value ([3]; 5-FU continuous infusion) was “about 1 hour” and the half-life in blood ([3]; human, in vivo) was “very short”. For the same compound, the “5-FU clearance variation depending on the subject” value ([3]; interindividual) was 6 to 10 factor, the “clearance multiplication from bolus administration to continued perfusion” value ([3]; perfusion during several hours or days) was 10 factor and the “administered 5-FU available for the anabolic pathway” value [3, 4] was 20%. For the same compound, the “administered 5-FU eliminated by DPD in the catabolic pathway” value [3, 4] was “about 80%”.

Reference: patent publication US9463193B2, “Individual 5-fluorouracile dose optimization in folfiri treatment” (INSTITUT DE CANCEROLOGIE DE L'OUEST, priority 2008, dated 2016)
